One data set relates to male SWISS-WEBSTER mice. In words: mnesic retention test of exploratory activity (APELAB ACTIMETER). Particulars: re-measured after a week; for inhibition in vivo at 10 mg/kg: dose 10 mg/kg i.v. The class given is in vivo.
The nature of data set [1]: approximate acute toxicity (MILLER and TAINTER). Particulars: mouse, in vivo, mice. How it is done:
The approximate acute toxicity is determined according to the method described by MILLER and TAINTER in Proc. Soc. Exp. Biol. Med. 57, 261 (1944).

[2] abbreviates: Mus musculus, iv, 168 h, dose 3 mg/kg i.v., read-out: Mnesic test: % reduction of the exploratory activity.
[3] abbreviates: Mus musculus, iv, 168 h, read-out: Mnesic test: % reduction of the exploratory activity.
The mark [4] stands for this setting: Mus musculus, iv, 168 h, dose 1 mg/kg i.v., read-out: Mnesic test: % reduction of the exploratory activity.

Consider `COc1cc(/C=C/C(=O)N2CCN(CC(N)=O)CC2)cc(OC)c1OC` [Code number 11, trans-1-(3,4,5-trimethoxy)cinnamoyl 4-aminocarbonylmethyl piperazine], for which the inhibition in vivo at 3 mg/kg with male SWISS-WEBSTER mice (setting [2]) worked out at 28.4%. The mortality in data set [1] (iv, dose 200 mg/kg i.v.) is 0%.
Take `COc1cc(/C=C/C(=O)N2CCN(CC(=O)NC3CCCC3)CC2)cc(OC)c1OC` [compound 23]: the inhibition in vivo at 3 mg/kg with male SWISS-WEBSTER mice (setting [2]) was determined as 18.4%. In data set [1] (iv, dose 200 mg/kg i.v.), the mortality was determined as 0%.
With `COc1cc(/C=C/C(=O)N2CCN(CC(=O)NC(C)C)CC2)ccc1O` [compound 26], the inhibition in vivo at 10 mg/kg in the data set on male SWISS-WEBSTER mice (setting [3]) was determined as 14.3%.
Turning to `COc1cc(/C=C/C(=O)N2CCN(CC(=O)NCc3cc(OC)c(OC)c(OC)c3)CC2)cc(OC)c1OC` [compound 29], the inhibition in vivo at 3 mg/kg in the data set with male SWISS-WEBSTER mice (setting [2]) turned out to be 9.9%. Also, in data set [1] (iv, dose 200 mg/kg i.v.), the mortality came out at 0%.
`O=C(/C=C/c1ccccc1)N1CCN(CC(=O)N2CCCC2)CC1` [compound 36]: in the data set on male SWISS-WEBSTER mice (setting [3]), the inhibition in vivo at 10 mg/kg amounted to 18.4%. For the same molecule, the mortality in data set [1] (iv, dose 200 mg/kg i.v.) was found to be 0%.
On to `O=C(/C=C/c1ccc2c(c1)OCO2)N1CCN(CC(=O)N2CCCC2)CC1` [compound 37], for which the inhibition in vivo at 1 mg/kg in the data set on male SWISS-WEBSTER mice (setting [4]) is 25.2%. In data set [1] (ip, dose 400 mg/kg i.p.), this molecule showed a mortality of 0%.
`O=C(/C=C/c1ccc(F)cc1)N1CCN(CC(=O)N2CCCC2)CC1` [compound 38]: in the data set on male SWISS-WEBSTER mice (setting [2]), the inhibition in vivo at 3 mg/kg turned out to be 28.6%. In data set [1] (iv, dose 200 mg/kg i.v.), this molecule yielded a mortality of 10%.
Regarding `O=C(/C=C/c1ccc(Cl)c(Cl)c1)N1CCN(CC(=O)N2CCCC2)CC1` [compound 40], the inhibition in vivo at 3 mg/kg in the data set with male SWISS-WEBSTER mice (setting [2]) turned out to be 28.9%. This molecule came in with a mortality in data set [1] (iv, dose 120 mg/kg i.v.) of 50%.
Consider `COc1cc(/C=C/C(=O)N2CCN(CC(=O)N3CCCC3)CC2)cc(OC)c1` [compound 43], for which the inhibition in vivo at 10 mg/kg in the data set on male SWISS-WEBSTER mice (setting [3]) came to 23.8%.
On to `O=C(/C=C/c1ccc(Cl)cc1)N1CCN(CC(=O)N2CCCC2)CC1` [compound 47], for which the inhibition in vivo at 1 mg/kg in the data set with male SWISS-WEBSTER mice (setting [4]) was 26.5%. The mortality in data set [1] (iv, dose 200 mg/kg i.v.) came out at 0%.
Consider `COc1ccccc1/C=C/C(=O)N1CCN(CC(=O)N2CCCC2)CC1` [compound 48], for which the inhibition in vivo at 30 mg/kg in the data set with male SWISS-WEBSTER mice (Mus musculus, iv, 168 h, dose 30 mg/kg i.v., read-out: Mnesic test: % reduction of the exploratory activity) amounted to 26.1%. For the same molecule, in data set [1] (iv, dose 200 mg/kg i.v.), the mortality was found to be 0%.
As for `COc1ccc(OC)c(/C=C/C(=O)N2CCN(CC(=O)N3CCCC3)CC2)c1` [compound 49], the inhibition in vivo at 1 mg/kg in the data set with male SWISS-WEBSTER mice (setting [4]) was 15.7%. The mortality in data set [1] (iv, dose 205 mg/kg i.v.) is 50%.
With `O=C(/C=C/c1ccc2c(c1)OCO2)N1CCN(CC(=O)N2CCCCC2)CC1` [compound 55], the inhibition in vivo at 3 mg/kg with male SWISS-WEBSTER mice (setting [2]) stood at 18.7%.
Still for that read-out and setting: the value for `O=C(/C=C/c1ccc(Cl)cc1)N1CCN(CC(=O)N2CCCCC2)CC1` [compound 56] was 23.5%.
Regarding “trans-1-(3,4,5-trimethoxy)cinnamoyl 4-(2-hydroxy)ethyl piperazine maleate [Code number 2]”, the “Mnesic test: % reduction of the exploratory activity” value with male SWISS-WEBSTER mice (dose 3 mg/kg i.v.) stood at 17.5%.
Take “trans-1-(3,4-methylenedioxy)cinnamoyl 4-pyrrolidinocarbonyl piperazine, hydrochloride [Code number 37]”: in the data set with male SWISS-WEBSTER mice (dose 1 mg/kg i.v.), the “Mnesic test: % reduction of the exploratory activity” value came out at 14.7%.

For the origin of these results see US4639452A, “Arylic derivatives of piperazine, the method of preparing same and their application in therapeutics” (Delalande S.A., priority 1982, dated 1987).
